Measured values taken from PMC8351955, “Targeting Mycobacterium tuberculosis response to environmental cues for the development of effective antitubercular drugs” (PLoS Biology, 2021).
Read-outs that look alike come from different tables or passages of the source.

Columns and labels:
[1] = tested on: CDC1551(rv2390c′::GFP) reporter Mtb strain, response to high [Cl−]; assay: microbe, parasite or virus in culture; assay type: cell-based, Mycobacterium tuberculosis; conditions: Mycobacterium tuberculosis, 144 h; for activity at 20 µM: read-out: rv2390c'::GFP validation assay NPA% at 20 µM compound
[2] = tested on: CDC1551(rv1405c′::GFP) reporter Mtb strain; assay: microbe, parasite or virus in culture; assay type: cell-based, Mycobacterium tuberculosis; conditions: Mycobacterium tuberculosis; for activity at 10 µM: read-out: rv1405c'::GFP secondary assay NPA% at 10 µM compound; for activity at 20 µM: read-out: rv1405c'::GFP secondary assay NPA% at 20 µM compound
[3] = pH 6.4, […], DMSO positive control = 100%, read-out: Primary screen rv2390c'::GFP NPA%
[4] = 10 µM, pH 6.4, 250 mM NaCl, 6 days, read-out: rv2390c'::GFP validation assay NPA% at 10 µM compound

| Structure (SMILES) | activity at 10 µM [1, 3] | activity at 10 µM [1, 4] | activity at 20 µM ([1]; pH 6.4, 250 mM NaCl, 6 days) | activity at 10 µM [2] | activity at 20 µM [2] |
| --- | --- | --- | --- | --- | --- |
| CCOC(=O)Cc1cc(=O)n2nc(C(F)(F)F)c(-c3ccccc3)c2[nH]1 [RU-0171667, CCOC(=O)CC1=CC(=O)N2N=C(C(=C2N1)C1=CC=CC=C1)C(F)(F)F] | 163% | 148 ± 28.3% | 178 ± 17.6% | 84.5 ± 11.2% | 94.8 ± 4% |
| CC(SCc1cc(=O)n2nc(N)[nH]c2n1)c1ccccc1Cl (stereo not shown) [RU-0182827, CC(SCC1=CC(=O)N2N=C(N)NC2=N1)C1=C(Cl)C=CC=C1] | 11.2% | 13.3 ± 4.2% | 20 ± 4.4% | 6.6 ± 1.1% | 9.7 ± 3.1% |
| Cc1cc(C(C)C(=O)Nc2ccc(N3CCN(C)CC3)cn2)c(C)o1 (stereo not shown) [RU-0182922, CC(C(=O)NC1=NC=C(C=C1)N1CCN(C)CC1)C1=C(C)OC(C)=C1] | 174% | 139 ± 18.3% | 164 ± 13.6% | 96.9 ± 6.7% | 106 ± 5.2% |
| CC(CNC(=O)Nc1cccc(-c2noc(=O)[nH]2)c1)c1ccccc1 (stereo not shown) [RU-0182956, CC(CNC(=O)NC1=CC(=CC=C1)C1=NOC(=O)N1)C1=CC=CC=C1] | 48.1% | 66.7 ± 2.4% | 39 ± 3.5% | 38.3 ± 1.6% | 9.7 ± 1.2% |
| CSc1nc2nc3c(cc2c(=O)[nH]1)C(O)Oc1ccc(C)cc1-3 (stereo not shown) [RU-0183239, CSC1=NC2=C(C=C3C(O)OC4=C(C=C(C)C=C4)C3=N2)C(=O)N1] | 49.5% | 49.2 ± 4.2% | 33.7 ± 1.8% | 53.9 ± 4.3% | 12.9 ± 5.2% |
| O=C(NC[C@H]1C[C@H]2C=C[C@H]1C21CC1)c1cnc(N2CCOCC2)nc1 [RU-0184528, O=C(NC[C@H]1C[C@H]2C=C[C@H]1C21CC1)C1=CN=C(N=C1)N1CCOCC1] | 158% | 111 ± 2.1% | 134 ± 13.6% | 104 ± 21.9% | 136 ± 11.8% |
| Cc1ccc(-c2nc3nc(N)n(C)c(=O)c3nc2-c2ccc(C)cc2)cc1 [RU-0192424, CN1C(N)=NC2=NC(C3=CC=C(C)C=C3)=C(N=C2C1=O)C1=CC=C(C)C=C1] | 160% | 140 ± 10.1% | 169 ± 12.3% | 97 ± 3.1% | 120 ± 9.3% |
| COC(=O)Oc1sc2nc3ccccc3nc2c1N [RU-0193917, COC(=O)OC1=C(N)C2=C(S1)N=C1C=CC=CC1=N2] | 158% | 166 ± 15.7% | 184 ± 27% | 111 ± 4% | 179 ± 15% |
| Cc1nc2nc(-c3cccs3)nn2c(O)c1C1CCS(=O)(=O)C1 (stereo not shown) [RU-0194400, CC1=NC2=NC(=NN2C(O)=C1C1CCS(=O)(=O)C1)C1=CC=CS1] | 7.1% | 9.1 ± 3.9% | 15 ± 5.3% | -2.1 ± 2.6% | 2.5 ± 7% |
| CCN(CC)c1ccc2c(NC3CCCCC3)nc(=O)oc2c1 [RU-0196346, CCN(CC)C1=CC2=C(C=C1)C(NC1CCCCC1)=NC(=O)O2] | 183% | 161 ± 6.2% | 192 ± 12.4% | 110 ± 13% | 115 ± 9.5% |
| OCC(CNc1nc(N2CCCC2)nc(N2CCCC2)n1)Cc1ccco1 (stereo not shown) [RU-0198952, OCC(CNC1=NC(=NC(=N1)N1CCCC1)N1CCCC1)CC1=CC=CO1] | 170% | 123 ± 7.8% | 194 ± 15.6% | 171 ± 12.8% | 380 ± 28.2% |
| Cc1csc(/C(C#N)=C\c2ccc(C3CC3C)o2)n1 (stereo not shown) [RU-0200280, CC1CC1C1=CC=C(O1)\C=C(\C#N)C1=NC(C)=CS1] | 277% | 144 ± 5.5% | 248 ± 21.2% | 399 ± 31.8% |  |
| COc1ccc2c(C)cc(Nc3cc(F)ccc3C)nc2c1 [RU-0202188, COC1=CC2=C(C=C1)C(C)=CC(NC1=C(C)C=CC(F)=C1)=N2] | 159% | 128 ± 12.2% | 132 ± 17.8% | 206 ± 10.4% | 256 ± 16.6% |
| CC(NC(=O)c1cc(Cl)ccc1NS(C)(=O)=O)c1ccc2c(c1)OCO2 (stereo not shown) [RU-0202213, CC(NC(=O)C1=C(NS(C)(=O)=O)C=CC(Cl)=C1)C1=CC2=C(OCO2)C=C1] | 195% | 152 ± 9.2% | 181 ± 5.7% | 89.3 ± 18.6% | 119 ± 13.2% |
| CCOC(=O)N1C/C(=C/c2cccc(O)c2)C(=O)/C(=C/c2cccc(O)c2)C1 [RU-0202273, CCOC(=O)N1C\C(=C\C2=CC(O)=CC=C2)C(=O)\C(C1)=C\C1=CC(O)=CC=C1] | 154% | 113 ± 3.2% | 117 ± 11% | 84.5 ± 18.2% | 158 ± 19.3% |
| COc1ccc2c(c1)OCC(C(=O)C(C#N)c1nc3ccccc3o1)C2 (stereo not shown) [RU-0202553, COC1=CC2=C(CC(CO2)C(=O)C(C#N)C2=NC3=C(O2)C=CC=C3)C=C1] | 189% | 131 ± 13.6% | 249 ± 22.5% | 136 ± 12.3% | 402 ± 46.5% |

| Structure (SMILES) | activity at 10 µM [1, 3] | activity at 10 µM [1, 4] | activity at 20 µM ([1]; pH 6.4, 250 mM NaCl, 6 days) | activity at 10 µM [2] | activity at 20 µM [2] |
| --- | --- | --- | --- | --- | --- |
| CC(C)CCOc1ccc(C(=O)Nc2cc(Cl)ccc2C(N)=O)cc1 [RU-0202925, CC(C)CCOC1=CC=C(C=C1)C(=O)NC1=C(C=CC(Cl)=C1)C(N)=O] | 46.5% | 57.1 ± 7.4% | 60.8 ± 9.8% | 63.2 ± 8.6% | 61.8 ± 14.4% |
| CCOC(=O)c1nnc(NC(=O)c2cc(Cl)cc(Cl)c2)s1 [RU-0203287, CCOC(=O)C1=NN=C(NC(=O)C2=CC(Cl)=CC(Cl)=C2)S1] | 174% | 118 ± 12.5% | 138 ± 17% | 99 ± 5.3% | 111 ± 11.8% |
| CC(CCc1ccccc1)Nc1ncnc(-n2cccn2)c1N (stereo not shown) [RU-0203332, CC(CCC1=CC=CC=C1)NC1=C(N)C(=NC=N1)N1C=CC=N1] | 151% | 100 ± 2.9% | 135 ± 16.1% | 117 ± 5.3% | 182 ± 8.5% |
| Cc1nc(NS(=O)(=O)c2ccc(F)c(F)c2)n(-c2ccc(C#N)cc2)n1 [RU-0203361, CC1=NN(C(NS(=O)(=O)C2=CC(F)=C(F)C=C2)=N1)C1=CC=C(C=C1)C#N] | 152% | 121 ± 1.5% | 160 ± 15.7% | 119 ± 11.5% | 169 ± 13.4% |
| CC(OC(=O)CC(C)(C)C)c1nc2cc(Cl)ccc2n1C (stereo not shown) [RU-0203619, CC(OC(=O)CC(C)(C)C)C1=NC2=C(C=CC(Cl)=C2)N1C] | 153% | 95.6 ± 13.8% | 131 ± 11% | 75.6 ± 6.2% | 96.6 ± 5.5% |
| COCCOc1ccc(NS(=O)(=O)c2cn(C)c(Cl)n2)cn1 [RU-0203727, COCCOC1=NC=C(NS(=O)(=O)C2=CN(C)C(Cl)=N2)C=C1] | 277% | 168 ± 16.8% | 309 ± 6.8% | 330 ± 19.1% | 996 ± 23.7% |
| COc1ccc2c(CC(=O)Nc3nc(CN4CCCCC4)cs3)coc2c1 [RU-0204291, COC1=CC2=C(C=C1)C(CC(=O)NC1=NC(CN3CCCCC3)=CS1)=CO2] | 167% | 99.2 ± 12.7% | 142 ± 13% | 104 ± 2.6% | 135 ± 13.2% |
| CC(=O)N1N=C(c2c(-c3ccccc3)c3ccc(C)cc3[nH]c2=O)CC1c1ccco1 (stereo not shown) [RU-0204568, CC(=O)N1N=C(CC1C1=CC=CO1)C1=C(C2=CC=CC=C2)C2=C(NC1=O)C=C(C)C=C2] | 162% | 125 ± 9.5% | 198 ± 21% | 102 ± 12.9% | 116 ± 27.3% |
| CCc1nc(C(C#N)C(=O)/C=C/c2ccc(NC(C)=O)cc2)sc1C (stereo not shown) [RU-0204780, CCC1=C(C)SC(=N1)C(C#N)C(=O)\C=C\C1=CC=C(NC(C)=O)C=C1] | 158% | 112 ± 8.5% | 140 ± 12.3% | 127 ± 5.5% | 206 ± 16% |
| Cc1sc(NS(=O)(=O)c2ccc(F)c(F)c2)c(C(N)=O)c1C [RU-0205217, CC1=C(C)C(C(N)=O)=C(NS(=O)(=O)C2=CC(F)=C(F)C=C2)S1] | 163% | 128 ± 4.7% | 217 ± 16.5% | 305 ± 31.1% | 741 ± 74% |
| O=C(O)c1cc(-c2ccc(N3CCOCC3)cc2)nn1-c1ccc(F)cc1 [RU-0206470, OC(=O)C1=CC(=NN1C1=CC=C(F)C=C1)C1=CC=C(C=C1)N1CCOCC1] | 157% | 111 ± 10.3% | 165 ± 15.9% | 104 ± 4.5% | 158 ± 23.6% |
| Cn1ccc(C(=O)Nc2nc(Sc3ccccc3)ns2)cc1=O [RU-0206593, CN1C=CC(=CC1=O)C(=O)NC1=NC(SC2=CC=CC=C2)=NS1] | 42.6% | 39.2 ± 6.9% | 22.7 ± 6.8% | 42 ± 9.6% | 38.3 ± 17.6% |
| Cn1cccc1C(=O)NS(=O)(=O)c1ccc(C#N)c(Cl)c1 [RU-0207640, CN1C=CC=C1C(=O)NS(=O)(=O)C1=CC(Cl)=C(C=C1)C#N] | 177% | 148 ± 12.2% | 203 ± 22.6% | 175 ± 20% | 357 ± 29.5% |
| C(=C\c1ccccc1)/Cn1nnc(-c2cccs2)n1 [RU-0207924, C(\C=C\C1=CC=CC=C1)N1N=NC(=N1)C1=CC=CS1] | 152% | 114 ± 1.5% | 137 ± 4% | 97.4 ± 8.8% | 125 ± 16.3% |
| CCc1nc(C(=O)Nc2nc(C#N)c(C#N)[nH]2)nn1-c1ccccc1Cl [RU-0208082, CCC1=NC(=NN1C1=C(Cl)C=CC=C1)C(=O)NC1=NC(C#N)=C(N1)C#N] | 309% | 258 ± 15.1% | 380 ± 38.2% | 418 ± 56.2% | 677 ± 106% |
